Results reported in patent US11208412B2 (DAEGU-GYEONGBUK MEDICAL INNOVATION FOUNDATION, priority 2017, dated 2021).

Columns and labels:
Assay in all cases: Kinase selectivity, DiscoverX scanMAX Kinase assay panel (% control)
Assay type in all cases: binding
[1] = biological target: T1, kinases of the scanMAX Kinase assay panel (Homo sapiens, UniProt O43318); conditions: kinase TAK1; 1 uM in DMSO
T1 construct: purchased DiscoverX Co. (contract measurement) scanMAX Kinase assay panel
T1 sequence (O43318 1-606): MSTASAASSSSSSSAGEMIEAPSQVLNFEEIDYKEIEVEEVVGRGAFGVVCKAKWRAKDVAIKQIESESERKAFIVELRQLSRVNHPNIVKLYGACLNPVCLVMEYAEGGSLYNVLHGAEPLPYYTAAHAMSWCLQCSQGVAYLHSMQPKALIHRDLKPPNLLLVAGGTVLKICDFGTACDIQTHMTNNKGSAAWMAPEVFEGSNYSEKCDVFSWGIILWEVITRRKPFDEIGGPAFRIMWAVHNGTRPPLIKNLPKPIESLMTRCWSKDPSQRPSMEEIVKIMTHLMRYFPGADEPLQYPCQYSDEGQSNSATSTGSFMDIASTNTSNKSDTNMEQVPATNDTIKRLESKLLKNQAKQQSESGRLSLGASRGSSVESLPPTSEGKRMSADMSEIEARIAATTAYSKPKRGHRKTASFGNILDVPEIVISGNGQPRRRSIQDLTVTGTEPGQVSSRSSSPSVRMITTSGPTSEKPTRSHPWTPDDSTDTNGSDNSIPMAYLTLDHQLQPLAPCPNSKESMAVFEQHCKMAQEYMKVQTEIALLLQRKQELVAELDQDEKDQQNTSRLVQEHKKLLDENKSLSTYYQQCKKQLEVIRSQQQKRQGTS
Procedure, shortened: (§1)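 Binding-panel profiling at one concentration, 1 uM in DMSO; values are % of DMSO control after subtracting the positive-control floor. Less than 35% means activity on that kinase.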

[2] = biological target: T2, kinases of the scanMAX Kinase assay panel (Homo sapiens, UniProt O95835); conditions: LATS1; 1 uM
T2 construct: purchased DiscoverX Co. (contract measurement) scanMAX Kinase assay panel
T2 sequence (O95835 1-1130): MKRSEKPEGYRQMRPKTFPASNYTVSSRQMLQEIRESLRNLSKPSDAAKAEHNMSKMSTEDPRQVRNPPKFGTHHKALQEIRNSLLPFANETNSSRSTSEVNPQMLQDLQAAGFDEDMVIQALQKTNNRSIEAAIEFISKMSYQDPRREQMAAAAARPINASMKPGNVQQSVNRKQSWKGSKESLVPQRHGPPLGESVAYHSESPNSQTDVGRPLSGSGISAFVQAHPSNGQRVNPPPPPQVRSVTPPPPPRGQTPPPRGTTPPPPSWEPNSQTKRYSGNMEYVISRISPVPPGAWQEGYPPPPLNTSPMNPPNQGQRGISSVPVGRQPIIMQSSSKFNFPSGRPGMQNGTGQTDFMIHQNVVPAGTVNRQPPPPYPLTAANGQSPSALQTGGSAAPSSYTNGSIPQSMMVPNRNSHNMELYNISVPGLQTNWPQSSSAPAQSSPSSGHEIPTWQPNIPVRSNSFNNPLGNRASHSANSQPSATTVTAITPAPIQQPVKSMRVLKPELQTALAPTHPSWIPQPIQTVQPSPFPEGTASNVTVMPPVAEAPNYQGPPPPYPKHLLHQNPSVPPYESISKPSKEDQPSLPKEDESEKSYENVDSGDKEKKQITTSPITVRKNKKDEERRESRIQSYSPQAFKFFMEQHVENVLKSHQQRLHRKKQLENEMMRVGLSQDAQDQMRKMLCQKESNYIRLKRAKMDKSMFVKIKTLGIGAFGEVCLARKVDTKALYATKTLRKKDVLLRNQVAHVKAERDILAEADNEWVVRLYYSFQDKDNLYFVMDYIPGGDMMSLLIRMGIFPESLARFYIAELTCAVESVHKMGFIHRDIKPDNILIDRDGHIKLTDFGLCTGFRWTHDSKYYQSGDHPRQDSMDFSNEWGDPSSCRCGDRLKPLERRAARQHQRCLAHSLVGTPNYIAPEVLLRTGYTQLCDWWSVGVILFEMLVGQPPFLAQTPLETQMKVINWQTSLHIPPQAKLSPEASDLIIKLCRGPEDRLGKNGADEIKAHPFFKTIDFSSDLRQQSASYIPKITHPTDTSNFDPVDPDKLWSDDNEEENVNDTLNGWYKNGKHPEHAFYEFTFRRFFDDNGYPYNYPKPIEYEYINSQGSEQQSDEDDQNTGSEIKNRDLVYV
Procedure, shortened: as §1

[3] = biological target: T3, kinases of the scanMAX Kinase assay panel (Homo sapiens, UniProt P08581); conditions: MET; 1 uM
T3 construct: purchased DiscoverX Co. (contract measurement) scanMAX Kinase assay panel
Procedure, shortened: as §1

[4] = biological target: T4, kinases of the scanMAX Kinase assay panel (Homo sapiens, UniProt P28482); conditions: ERK2; 1 uM
T4 construct: purchased DiscoverX Co. (contract measurement) scanMAX Kinase assay panel
Procedure, shortened: as §1

[5] = biological target: T5, kinases of the scanMAX Kinase assay panel (Homo sapiens, UniProt Q13177); conditions: PAK2; 1 uM
T5 construct: purchased DiscoverX Co. (contract measurement) scanMAX Kinase assay panel
Procedure, shortened: as §1

[6] = biological target: T6, kinases of the scanMAX Kinase assay panel (Homo sapiens, UniProt Q16513); conditions: PKN2; 1 uM
T6 construct: purchased DiscoverX Co. (contract measurement) scanMAX Kinase assay panel
Procedure, shortened: as §1

[7] = biological target: T7, kinases of the scanMAX Kinase assay panel (Homo sapiens, UniProt Q16539); conditions: p38-alpha; 1 uM
T7 construct: purchased DiscoverX Co. (contract measurement) scanMAX Kinase assay panel
Procedure, shortened: as §1

T7 sequence (Q16539 whole entry): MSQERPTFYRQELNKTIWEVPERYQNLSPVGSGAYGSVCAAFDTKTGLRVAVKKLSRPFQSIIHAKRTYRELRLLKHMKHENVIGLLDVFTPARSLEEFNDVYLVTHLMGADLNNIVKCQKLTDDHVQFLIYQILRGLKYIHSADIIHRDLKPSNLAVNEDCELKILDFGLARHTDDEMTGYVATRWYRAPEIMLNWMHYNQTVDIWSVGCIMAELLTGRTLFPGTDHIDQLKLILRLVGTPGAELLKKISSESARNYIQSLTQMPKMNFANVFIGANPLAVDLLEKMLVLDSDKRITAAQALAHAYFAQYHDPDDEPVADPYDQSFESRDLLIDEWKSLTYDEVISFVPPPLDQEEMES
T5 sequence (Q13177 whole entry): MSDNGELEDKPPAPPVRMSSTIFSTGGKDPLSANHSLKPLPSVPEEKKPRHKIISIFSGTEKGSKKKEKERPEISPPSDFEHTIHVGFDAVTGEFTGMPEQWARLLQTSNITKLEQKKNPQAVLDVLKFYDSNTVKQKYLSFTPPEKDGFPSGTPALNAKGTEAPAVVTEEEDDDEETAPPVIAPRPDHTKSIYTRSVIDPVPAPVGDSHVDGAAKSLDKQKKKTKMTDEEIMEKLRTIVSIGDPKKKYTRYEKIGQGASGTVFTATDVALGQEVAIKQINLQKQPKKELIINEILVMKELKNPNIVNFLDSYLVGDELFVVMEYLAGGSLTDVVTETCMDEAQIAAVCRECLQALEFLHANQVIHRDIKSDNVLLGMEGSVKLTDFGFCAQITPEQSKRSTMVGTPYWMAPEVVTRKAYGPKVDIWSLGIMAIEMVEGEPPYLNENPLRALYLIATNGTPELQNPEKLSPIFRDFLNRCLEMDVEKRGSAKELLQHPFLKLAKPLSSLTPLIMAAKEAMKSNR
T6 sequence (Q16513 whole entry): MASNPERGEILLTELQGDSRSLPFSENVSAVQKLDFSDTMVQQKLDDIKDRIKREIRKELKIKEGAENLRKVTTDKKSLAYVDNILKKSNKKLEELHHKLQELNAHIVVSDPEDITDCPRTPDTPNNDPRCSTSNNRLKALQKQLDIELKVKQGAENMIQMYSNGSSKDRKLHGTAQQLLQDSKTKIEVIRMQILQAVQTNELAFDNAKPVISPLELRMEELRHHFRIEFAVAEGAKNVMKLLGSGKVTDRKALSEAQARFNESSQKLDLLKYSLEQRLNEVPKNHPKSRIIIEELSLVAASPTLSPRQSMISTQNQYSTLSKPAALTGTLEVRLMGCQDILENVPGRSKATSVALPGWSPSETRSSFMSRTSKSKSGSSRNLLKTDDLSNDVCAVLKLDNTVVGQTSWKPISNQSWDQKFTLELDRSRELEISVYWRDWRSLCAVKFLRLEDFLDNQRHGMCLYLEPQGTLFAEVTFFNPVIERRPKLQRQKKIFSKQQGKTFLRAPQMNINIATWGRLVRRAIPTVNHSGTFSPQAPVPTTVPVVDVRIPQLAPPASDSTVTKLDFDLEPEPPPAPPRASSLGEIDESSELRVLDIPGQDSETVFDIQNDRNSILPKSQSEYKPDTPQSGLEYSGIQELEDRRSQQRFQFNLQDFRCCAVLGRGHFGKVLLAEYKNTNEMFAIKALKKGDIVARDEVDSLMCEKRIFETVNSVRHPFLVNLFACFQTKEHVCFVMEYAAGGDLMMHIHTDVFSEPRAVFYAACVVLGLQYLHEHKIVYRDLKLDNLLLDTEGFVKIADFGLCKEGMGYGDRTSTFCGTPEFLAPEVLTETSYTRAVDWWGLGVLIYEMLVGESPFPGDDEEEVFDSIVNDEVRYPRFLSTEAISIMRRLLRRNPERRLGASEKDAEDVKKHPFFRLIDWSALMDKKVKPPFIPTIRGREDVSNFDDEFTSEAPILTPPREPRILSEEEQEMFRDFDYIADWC
T4 sequence (P28482 whole entry): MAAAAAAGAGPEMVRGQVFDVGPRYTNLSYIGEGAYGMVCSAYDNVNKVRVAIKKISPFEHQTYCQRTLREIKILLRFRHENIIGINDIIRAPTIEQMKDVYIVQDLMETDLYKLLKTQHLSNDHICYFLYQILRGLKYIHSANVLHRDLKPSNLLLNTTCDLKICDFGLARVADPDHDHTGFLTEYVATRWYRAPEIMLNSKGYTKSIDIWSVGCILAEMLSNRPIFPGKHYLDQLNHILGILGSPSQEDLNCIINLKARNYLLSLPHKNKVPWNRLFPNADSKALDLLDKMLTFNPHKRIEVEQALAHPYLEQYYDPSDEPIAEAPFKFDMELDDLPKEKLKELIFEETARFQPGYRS
T3 sequence (P08581 25-1390): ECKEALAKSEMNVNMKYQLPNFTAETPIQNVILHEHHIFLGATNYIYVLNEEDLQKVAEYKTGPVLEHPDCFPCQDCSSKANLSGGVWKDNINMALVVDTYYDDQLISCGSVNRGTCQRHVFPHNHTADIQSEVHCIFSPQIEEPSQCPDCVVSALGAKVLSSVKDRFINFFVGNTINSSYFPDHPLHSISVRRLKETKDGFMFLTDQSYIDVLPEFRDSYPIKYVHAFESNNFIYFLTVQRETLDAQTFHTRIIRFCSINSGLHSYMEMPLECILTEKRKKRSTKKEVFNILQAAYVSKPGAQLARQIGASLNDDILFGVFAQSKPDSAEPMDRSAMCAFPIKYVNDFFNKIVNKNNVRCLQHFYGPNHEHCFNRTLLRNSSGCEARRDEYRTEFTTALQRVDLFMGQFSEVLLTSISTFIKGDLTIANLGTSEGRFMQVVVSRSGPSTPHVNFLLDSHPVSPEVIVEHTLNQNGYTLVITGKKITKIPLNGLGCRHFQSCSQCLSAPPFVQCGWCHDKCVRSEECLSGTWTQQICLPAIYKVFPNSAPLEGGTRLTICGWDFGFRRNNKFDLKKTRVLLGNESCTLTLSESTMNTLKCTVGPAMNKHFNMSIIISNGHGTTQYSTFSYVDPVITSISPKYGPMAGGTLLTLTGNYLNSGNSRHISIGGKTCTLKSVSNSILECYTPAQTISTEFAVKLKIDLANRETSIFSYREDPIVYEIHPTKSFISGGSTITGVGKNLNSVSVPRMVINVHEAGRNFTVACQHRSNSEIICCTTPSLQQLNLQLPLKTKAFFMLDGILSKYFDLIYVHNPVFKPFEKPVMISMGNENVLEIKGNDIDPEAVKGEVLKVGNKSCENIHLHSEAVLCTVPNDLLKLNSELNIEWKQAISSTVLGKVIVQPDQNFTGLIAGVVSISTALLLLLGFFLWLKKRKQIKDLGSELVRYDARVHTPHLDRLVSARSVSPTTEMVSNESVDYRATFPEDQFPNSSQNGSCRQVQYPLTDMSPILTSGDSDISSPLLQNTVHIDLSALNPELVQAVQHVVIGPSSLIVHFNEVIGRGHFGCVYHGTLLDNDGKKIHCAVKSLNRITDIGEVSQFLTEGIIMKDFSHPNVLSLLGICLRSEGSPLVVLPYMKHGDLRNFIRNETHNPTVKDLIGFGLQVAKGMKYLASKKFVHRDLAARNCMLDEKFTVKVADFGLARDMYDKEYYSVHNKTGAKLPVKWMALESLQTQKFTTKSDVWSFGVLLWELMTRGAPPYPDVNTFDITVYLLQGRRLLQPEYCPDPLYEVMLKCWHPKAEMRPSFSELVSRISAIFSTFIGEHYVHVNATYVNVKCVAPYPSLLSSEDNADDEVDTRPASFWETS

| SMILES | remaining binding at 1 µM [1] [%] | remaining binding at 1 µM [2] [%] | remaining binding at 1 µM [3] [%] | remaining binding at 1 µM [4] [%] | remaining binding at 1 µM [5] [%] | remaining binding at 1 µM [6] [%] | remaining binding at 1 µM [7] [%] |
| --- | --- | --- | --- | --- | --- | --- | --- |
| CNc1nc(Nc2ccc(C(=O)N3CCOCC3)cc2OC)nc2[nH]cc(C#N)c12 [Example 1, 2-((2-methoxy-4-(morpholine-4-carbonyl)phenyl)amino)-4-(methylamino)-7H-pyrrolo[2,3-d]pyrimidine-5-carbonitrile] | 52 | 100 | 89 | 86 | 95 | 53 | 94 |
| CC1(Nc2nc(Nc3cnn([C@H]4CCN(C5COC5)C[C@@H]4F)c3Cl)nc3[nH]cc(C#N)c23)CC1 [Example 52, 2-((5-chloro-1-((3S,4S)-3-fluoro-1-(oxetane-3-yl)piperidine-4-yl)-1H-pyrazole-4-yl)amino)((1-methylcyclopropyl)amino)-7H-pyrrolo[2,3-d]pyrimidine-5-carbonitrile] | 0.05 | 35 | 21 | 54 | 45 | 78 | 91 |
| CCNc1nc(Nc2ccc(C(=O)N3CCC(N4CCOCC4)CC3)cc2OC)nc2[nH]cc(C(F)(F)F)c12 [Example 104, (4-((4-(ethylamino)-5-(trifluoromethyl)-7H-pyrrolo[2,3-d]pyrimidine-2-yl)amino)-3-methoxyphenyl)(4-morpholinopiperidine-1-yl)methanone] | 100 | 100 | 100 | 100 | 71 | 100 | 96 |
